Data published in paper PMC11009625, “Antibiotic class with potent in vivo activity targeting lipopolysaccharide synthesis in Gram-negative bacteria” (Proceedings of the National Academy of Sciences of the …, 2024).

Molecular target: T1, E. coli LpxH (Escherichia coli, UniProt P43341)
T1 construct: His6 (C); made in house; host or cells: E. coli BL21-AI (pET-26b(+), synthetic gene from GenScript)
Experiment: MBP-AaLpxE-coupled LpxH activity assay (malachite green)
Type: biochemical
Settings: read-out: E. coli LpxH enzyme inhibition IC50
Protocol: E. coli-optimized EcLpxH and KpLpxH sequences, cloned into a pET-26b(+) vector (Novagene) using NdeI/XhoI restriction sites, were ordered from GenScript Biotech (the Netherlands), giving constructs with a His6-tag at the C-terminal end, and bearing kanamycin resistance. Competent E. coli BL21-AI cells (Invitrogen) were transformed and grown at 37 °C in Luria broth containing 50 μg/mL kanamycin to an OD600 of 0.5 to 1.0, then induced for 2 to 3 h by adding IPTG and L-arabinose to final concentrations of 0.5 mM and of 2 mg/mL, respectively. Harvested cells were lysed in a One-Shot cell disrupter (Constant Systems Ltd., UK) in 20 mM Tris-HCl pH 8.0, 300 mM NaCl, 20 mM imidazole, 4 M urea, 5% (v/v) glycerol, 0.01 mg/mL RNase A and 0.02 mg/mL DNase, plus cOmplete, EDTA-free protease inhibitor cocktail (Roche). Proteins were purified using Ni-nitrilotriacetic acid agarose (Qiagen), HiTrap Heparin HP affinity chromatography (Cytiva), and HiLoad 16/60 Superdex 200 chromatography (Amersham Biosciences). Final samples were concentrated to 15 mg/mL protein and stored in aliquots in 20 mM Tris-HCl (pH 8.0) containing 300 mM NaCl and 2 mM DTT at −80 °C. Assays were performed essentially as described by ref. [26]. Additional assay details are available in SI Appendix.
Cloning, expression and purification of LpxHs. E. coli-optimized EcLpxH and KpLpxH sequences, cloned into a pET-26b(+) vector (Novagene) using NdeI/XhoI restriction sites, were ordered from GenScript Biotech (the Netherlands), giving constructs with a His6-tag at the C-terminal end, and bearing kanamycin resistance. The correctness of the sequences was verified by DNA sequencing. Competent E. coli BL21-AI cells (Invitrogen) were transformed with the resulting plasmids for protein production.
Cultures of 8 L of Luria broth containing 50 μg/mL kanamycin were grown at 37 °C to an OD600 of 0.5-1.0, then induced by adding IPTG to a final concentration of 0.5 mM and L-arabinose to a final concentration of 2 mg/ml. After 2-3 h of incubation at 37 °C, cells were harvested by centrifugation, and the pellet was resuspended in lysis buffer (20 mM Tris-HCl pH 8.0, 300 mM NaCl, 20 mM imidazole, 4 M urea, 5% (v/v) glycerol, 0.01 mg/mL RNase A and 0.02 mg/mL DNase, plus one tablet of cOmplete, EDTA-free cocktail protease inhibitor cocktail (Roche)).
Cells were lysed using a One-Shot cell disrupter (Constant Systems Ltd., UK). The lysate was spun down and the soluble fraction containing LpxH was incubated at 4 °C overnight with 1.5 mL pre-equilibrated Ni-nitrilotriacetic acid agarose (Qiagen) slurry using the same buffer. The column was then washed in steps of 30 column volumes with lysis buffer (without RNase A, DNase and protease inhibitor) containing 3, 2, 1, 0.5 and 0 M of urea. The protein was then eluted with eight column volumes of 500 mM imidazole in the same buffer. Fractions containing the desired protein as judged by SDS gels were pooled and purified on a HiTrap Heparin HP affinity column (Cytiva) (loading buffer 20 mM Tris-HCl, pH 8.0 and 5% glycerol, 2 mM DTT; elution buffer 20 mM Tris-HCl, pH 8.0 and 5% glycerol, 1 M NaCl, 2 mM DTT) and further applied to a HiLoad 16/60 Superdex 200 preparative grade column (Amersham Biosciences) pre-equilibrated with 20 mM Tris-HCl, pH 8.0, 300 mM NaCl, 5% glycerol, 2 mM
DTT. […]
for EcLpxH2 and KpLpxH, respectively, calculated using the ProtParam tool(1) were analyzed by SDS PAGE and stored in 20 mM Tris-HCl (pH 8.0) containing 300 mM NaCl and 2 mM DTT at -80 […]

T1 sequence (P43341 whole entry): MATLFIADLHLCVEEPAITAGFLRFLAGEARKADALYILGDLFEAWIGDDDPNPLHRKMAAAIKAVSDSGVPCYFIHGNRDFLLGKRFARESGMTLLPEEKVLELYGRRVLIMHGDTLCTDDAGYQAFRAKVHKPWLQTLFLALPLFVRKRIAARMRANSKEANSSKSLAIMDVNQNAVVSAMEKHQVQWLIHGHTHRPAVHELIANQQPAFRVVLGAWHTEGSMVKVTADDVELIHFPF

SMILES	IC50
CC(=O)N1CCc2cc(S(=O)(=O)N3CCN(c4cccc(C(F)(F)F)c4)CC3)ccc21 [AZ1, reference compound]	520 nM
CN(c1ccc(CNCCN)cc1C(=O)Nc1ccc(S(=O)(=O)N2CCN(c3cc(Cl)cc(Cl)c3)CC2)cc1)S(C)(=O)=O [EBL-3025]	3.4 nM
Cc1cc(C#N)nc(N2CCN(S(=O)(=O)c3ccc(NC(=O)c4ccccc4N(C)S(C)(=O)=O)cc3)CC2)n1 [EBL-3339]	1.5 nM
CN(c1ccccc1C(=O)Nc1ccc(S(=O)(=O)N2CCCCC2)cc1)S(C)(=O)=O [JEDI-852]	1300 nM
CN(c1ccccc1C(=O)Nc1ccc(S(=O)(=O)N2CCN(c3cccc(C(F)(F)F)c3)CC2)cc1)S(C)(=O)=O [JEDI-1444]	2.6 nM
